Results on five compounds are retold here after patent US20040126343A1, “Nail drug delivery” (priority 2002, published 2004).

Each structure is given as a SMILES string.

Data set [1] is described as follows: Penetration of radiolabeled model compounds into human nail plate, diffusion cell, twice daily topical dosing for 7 days. Particulars: for Increase of radioactivity in the ventral surface of the nail plate, carrier formulation compared with saline control / Radioactive Content, Dorsal/intermediate center / Radioactive Content, Ventral/intermediate center: twice daily for 7 days; for Increase of radioactivity in the ventral surface of the nail plate, carrier formulation compared with saline control: p<0.05; for Radioactive Content, Dorsal/intermediate center / Radioactive Content, Ventral/intermediate center / Percent Applied Dose, Cotton supporting bed / Percent Applied Dose, Dorsal/intermediate center / Percent Applied Dose, Remainder of nail / Percent Applied Dose, Subtotal (nail) / Percent Applied Dose, Surface Washing / Percent Applied Dose, Total (mass balance) / Percent Applied Dose, Ventral/intermediate center: mean (SD) of five tests. On the procedure:
Nail plates were collected from adult human cadavers and stored in a closed container at 0° C. Before each experiment, nail samples were gently washed with normal saline to remove any contamination, then rehydrated by placing them for 3 h on a cloth wetted with normal saline.
The test formulation contains 45% DMSO, 11% glycerin, 11% ethanol, 11% propylene glycol and water, as discussed in Hewitt P G, et al., 1998, Pharm Res 15:988-992. Normal saline (ABBOTT Laboratories, North Chicago, Ill.) was the control. […] A 5 μL aliquot was removed from each vial and radioactivity was measured in a Packard Liquid Scintillation Counter (model 1500).
A 5 μL dosing aliquot of each of the six test solutions was applied to the surface of a nail plate with a microsyringe twice daily, approximately 8 h apart for 7 days. Starting the second day, each morning before dosing, the surface of the nail was washed with cotton tips in a cycle, as follows: a dry tip, then a tip wetted with 50% skin cleansing liquid Ivory soap, then a tip wetted with distilled water, then another tip wetted with distilled water, then a final dry tip. This simulated a daily bathing. The washing samples from each cycle from each nail were pooled and collected by breaking off the cotton tip into scintillation glass vials. An aliquot of 5.0 mL methanol was added into each vial to extract test material. The radioactivity of each sample was measured in a liquid scintillation counter.
A Teflon® one-chamber diffusion cell (AMIE Systems) was used to hold each nail. To approximate physiological conditions, a small cotton ball wetted with 0.1 mL normal saline was placed in the chamber to serve as a “nail bed” and provide moisture for the nail plate. On day 5, 0.1 mL normal saline was injected through the inlet into the chamber to keep the cotton ball wet. A 1.5×1.5 cm aluminum sheet (0.24 mm thickness) with a hole in the center (1.0 cm diameter) was centered and glued to the top (dorsal) surface of the nail as a “frame” for the seal. The aluminum sheet frame flattens the curved nail and extends the surface area of the nail plate to fit the size of the top cover, so that potential leaking is prevented. The nail plate was placed on a ledge inside the receptor (1.0 cm in diameter and 0.5 cm high), sheet side up. The ventral (inner) surface of the nail was placed face down and rested on the wet cotton ball. Hydration of the nail plate and the supporting cotton bed was measured with a relative humidity/temperature meter (Corneometer CM 820; Courage & Khazaka, Cologne, Germany). Hydration was expressed digitally in arbitrary units (AU).
The rim of the cell base was covered with silicon gel and the top cover was set into the gel to prevent leaking. The metal holder was then tightly screwed into place.
The cells were placed on a platform in a large glass holding tank filled with saturated sodium phosphate solution. A digital relative humidity/temperature meter was used for monitoring room temperature, the chamber temperature, and humidity. The holding tank was then covered, thereby maintaining the cells at a constant humidity of 40%.
The sampling instrument consisted of a drill (Dremel™ model 2850; Dremel Inc., Racine, Wis.), a drill press (Dremel™), an adjustable stage (Fisher, Pittsburgh, Pa.) with an adjustable holder, and a high-speed cutter ( 5/16 inch or 7.9 mm in diameter).
After completion of the incubation phase, the nail plate was removed from the diffusion cell. The aluminum sheet frame was peeled off and placed in a glass scintillation vial. The nail plate was transferred to a clean Teflon® diffusion cell for processing. The nail plate was inverted so that the ventral (nail bed) surface faced up and the dorsal (outer) dosed surface faced down. A top cover was tightly screwed into place. The cell was placed in the middle of the holds on the adjustable stage.

For data set [2] the following is noted: cited from earlier work.
The conditions of data set [3]: cited from earlier work. This is another data set of the same source.
The mark [4] stands for this setting: Test Carrier Formulation (45% DMSO).

Take `CC(=O)N1CCN(c2ccc(OCC3COC(Cn4ccnc4)(c4ccc(Cl)cc4Cl)O3)cc2)CC1` (stereo not shown) [Ketoconazole, ketoconazole]: in data set [1], the “Increase of radioactivity in the ventral surface of the nail plate, carrier formulation compared with saline control” value (from here on “Increase of radioactivity”) is given as “approximately 50%”.

For the compound `NC(N)=O` [Urea, urea], in data set [1] (Saline Formulation), the “Radioactive Content, Dorsal/intermediate center” value is 0.4 (0.3) μg Eq./g Nail Sample and the “Radioactive Content, Ventral/intermediate center” value is reported as 0.2 (0.09) μg Eq./g Nail Sample. Besides, in data set [1] (setting [4]), the “Radioactive Content, Dorsal/intermediate center” value is 0.8 (0.5) μg Eq./g Nail Sample and the “Radioactive Content, Ventral/intermediate center” value is reported as 0.35 (0.15) μg Eq./g Nail Sample. The “Increase of radioactivity” value in data set [1] is “approximately 50%”. Further, the pKa in data set [2] is listed as 0.1.

`O=C(O)Cc1ccccc1Nc1c(Cl)cccc1Cl` [diclofenac sodium]: the “Permeability of human skin with the percutaneous drug-enhancing formulation” value in data set [3] (carrier formulation) is on record as “enhanced the permeability”.

As to `O=C(O)Cc1ccccc1Nc1c(Cl)cccc1Cl` [diclofenac], the “Human skin penetration over the 48 h of study” value in data set [3] (multiple dosing, four doses/day for 2 days, in the carrier, compared with a saline control) is on record as “continually increased”.

With `O=C(O)c1ccccc1O` [salicylic acid], in data set [1] (Saline Formulation), the “Percent Applied Dose, Cotton supporting bed” value is listed as 3.66 (2.02) Percent Applied Dose; the “Percent Applied Dose, Dorsal/intermediate center” value is listed as 47.10 (7.76) Percent Applied Dose; the “Percent Applied Dose, Remainder of nail” value is recorded as 14.20 (5.10) Percent Applied Dose; the “Percent Applied Dose, Subtotal (nail)” value was 63.83 (9.54) Percent Applied Dose. Besides, in data set [1] (Saline Formulation), the “Percent Applied Dose, Surface Washing” value is reported as 20.69 (5.97) Percent Applied Dose; the “Percent Applied Dose, Total (mass balance)” value is recorded as 88.18 (5.52) Percent Applied Dose; the “Percent Applied Dose, Ventral/intermediate center” value is recorded as 2.53 (0.51) Percent Applied Dose; the “Radioactive Content, Dorsal/intermediate center” value is reported as 71.6 (10.6) μg Eq./g Nail Sample. Besides, in data set [1] (Saline Formulation), the “Radioactive Content, Ventral/intermediate center” value is 7.0 (1.1) μg Eq./g Nail Sample. In data set [1] (setting [4]), the “Radioactive Content, Dorsal/intermediate center” value is 16.3 (4.2) μg Eq./g Nail Sample and the “Radioactive Content, Ventral/intermediate center” value is 10.2 (0.6) μg Eq./g Nail Sample. In data set [1] (Test Carrier Formulation), the “Percent Applied Dose, Cotton supporting bed” value was 2.23 (0.75) Percent Applied Dose; the “Percent Applied Dose, Dorsal/intermediate center” value is recorded as 4.96 (2.13) Percent Applied Dose; the “Percent Applied Dose, Remainder of nail” value was 3.87 (1.26) Percent Applied Dose; the “Percent Applied Dose, Subtotal (nail)” value is 15.87 (3.76) Percent Applied Dose. Also, in data set [1] (Test Carrier Formulation), the “Percent Applied Dose, Surface Washing” value was 70.86 (2.62) Percent Applied Dose; the “Percent Applied Dose, Total (mass balance)” value is recorded as 88.96 (2.29) Percent Applied Dose; the “Percent Applied Dose, Ventral/intermediate center” value is recorded as 7.04 (2.67) Percent Applied Dose. The “Increase of radioactivity” value in data set [1] is “approximately 50%”.

As usually defined, the pKa is the negative logarithm of the acid dissociation constant.
